Data as given in PubChem BioAssay (NCI).
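Growth conditions: 96-well plates. Treatment: test compound, 48 hours, 5 concentrations. Analysis: linear interpolation between bracketing concentrations; unreached endpoints set to highest concentration. TGI marks complete inhibition of growth.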

Legend:
Assay in all cases: NCI anticancer screen, dose series, 48 h
[1] = tested on: OVCAR-3 ovarian
[2] = tested on: NCI-H460 lung
[3] = tested on: HT29 colon
[4] = tested on: CCRF-CEM leukemia
[5] = tested on: IGROV1 ovarian
[6] = tested on: MDA-MB-231 breast
[7] = tested on: HCT-15 colon
[8] = tested on: OVCAR-4 ovarian
[9] = tested on: A498 renal
[10] = tested on: U251 CNS
[11] = tested on: SNB-19 CNS
[12] = tested on: SF-268 CNS
[13] = tested on: M19-MEL melanoma
[14] = tested on: BT-549 breast
[15] = tested on: UO-31 renal
[16] = tested on: DMS 273 small cell lung
[17] = tested on: 786-0 renal
[18] = tested on: MOLT-4 leukemia
[19] = tested on: M14 melanoma
[20] = tested on: UACC-257 melanoma
[21] = tested on: MDA-N
[22] = tested on: SR leukemia
[23] = tested on: DU-145 prostate
[24] = tested on: RPMI-8226 leukemia
[25] = tested on: K-562 leukemia
[26] = tested on: HCC-2998 colon
[27] = tested on: MALME-3M melanoma
[28] = tested on: EKVX NSCLC
[29] = tested on: UACC-62 melanoma
[30] = tested on: KM12 colon
[31] = tested on: TK-10 renal
[32] = tested on: SK-MEL-28 melanoma
[33] = tested on: SN12C renal
[34] = tested on: NCI-H522 lung
[35] = tested on: PC-3 prostate
[36] = tested on: COLO 205 colon
[37] = tested on: HL-60(TB) leukemia
[38] = tested on: OVCAR-8 ovarian
[39] = tested on: SF-295 CNS
[40] = tested on: A549 NSCLC
[41] = tested on: HCT-116 colon
[42] = tested on: DLD-1 colon
[43] = tested on: CAKI-1 renal
[44] = tested on: DMS 114 small cell lung
[45] = tested on: SK-MEL-5 melanoma
[46] = tested on: SNB-78 CNS
[47] = tested on: HS 578T breast
[48] = tested on: LXFL 529 NSCLC
[49] = tested on: SF-539 CNS
[50] = tested on: T-47D breast
[51] = tested on: NCI-H23 lung
[52] = tested on: LOX IMVI melanoma
[53] = tested on: SK-MEL-2 melanoma
[54] = tested on: SK-OV-3 ovarian
[55] = tested on: HOP-92 NSCLC
[56] = tested on: HOP-62 NSCLC
[57] = tested on: NCI-H226 lung
[58] = tested on: MDA-MB-435
[59] = tested on: XF 498 CNS
[60] = tested on: ACHN renal
[61] = tested on: RXF 393 renal
[62] = tested on: SW-620 colon
[63] = tested on: SNB-75 CNS
[64] = tested on: NCI/ADR-RES ovarian
[65] = tested on: MCF7 breast
[66] = tested on: OVCAR-5 ovarian
[67] = tested on: RXF-631 renal
[68] = tested on: KM20L2 colon
[69] = tested on: HOP-18 NSCLC

Cc1cc2c3ccccc3n(C)c2c2c1C(=O)C=CC2=O
TGI [1]: 28.3 µM
TGI [2]: 33.2 µM
TGI [3]: 20.5 µM
TGI [4]: > 36 µM
TGI [5]: 36.8 µM
TGI [6]: 32.7 µM
TGI [7]: 29.2 µM
TGI [8]: 18.7 µM
TGI [9]: 35.5 µM
TGI [10]: 32.6 µM
TGI [11]: 73 µM
TGI [12]: 39.1 µM
TGI [13]: 33.4 µM
TGI [14]: 46.4 µM
TGI [15]: 46.4 µM
TGI [16]: 29.1 µM
TGI [17]: 13.4 µM
TGI [18]: 46.3 µM
TGI [19]: 31.9 µM
TGI [20]: 18.7 µM
TGI [21]: 25.5 µM
TGI [22]: 38.9 µM
TGI [23]: 44.5 µM
TGI [24]: 5.47 µM
TGI [25]: > 74 µM
TGI [26]: 39.8 µM
TGI [27]: 45.7 µM
TGI [28]: 19 µM
TGI [29]: 32.4 µM
TGI [30]: 33.6 µM
TGI [31]: 31.2 µM
TGI [32]: 42.7 µM
TGI [33]: 35.9 µM
TGI [34]: 31.8 µM
TGI [35]: 21.5 µM
TGI [36]: 33.6 µM
TGI [37]: > 68 µM
TGI [38]: 62.7 µM
TGI [39]: 54.3 µM
TGI [40]: > 77.8 µM
TGI [41]: 39.2 µM
TGI [42]: 27 µM
TGI [43]: 28.9 µM
TGI [44]: 13 µM
TGI [45]: 51.6 µM
TGI [46]: 49.1 µM
TGI [47]: 55.2 µM
TGI [48]: 8.98 µM
TGI [49]: 41.9 µM
TGI [50]: 19.4 µM
TGI [51]: 27.4 µM
TGI [52]: 32.9 µM
TGI [53]: 37.7 µM
TGI [54]: 53.4 µM
TGI [55]: 25 µM
TGI [56]: 49.9 µM
TGI [57]: 42.5 µM
TGI [58]: 45.2 µM
TGI [59]: 31.3 µM
TGI [60]: 41.7 µM
TGI [61]: 20.5 µM
TGI [62]: 32.8 µM
TGI [63]: 60 µM
TGI [64]: > 100 µM
TGI [65]: 17.5 µM
TGI [66]: 35.4 µM

COc1cccc(C2c3cc4c(cc3OC(O)(CO)C2C(=O)O)OCO4)c1 (stereo not given) (tested in a mixture with another compound)
TGI [1]: > 100 µM
TGI [67]: > 100 µM
TGI [2]: 49 µM
TGI [3]: > 100 µM
TGI [4]: > 100 µM
TGI [5]: > 100 µM
TGI [7]: > 100 µM
TGI [8]: > 100 µM
TGI [9]: > 100 µM
TGI [10]: 62.2 µM
TGI [12]: > 100 µM
TGI [13]: > 100 µM
TGI [15]: > 100 µM
TGI [16]: > 100 µM
TGI [17]: > 100 µM
TGI [18]: > 100 µM
TGI [19]: > 100 µM
TGI [20]: > 100 µM
TGI [22]: > 100 µM
TGI [68]: > 100 µM
TGI [24]: > 100 µM
TGI [25]: > 100 µM
TGI [26]: > 100 µM
TGI [27]: > 100 µM
TGI [28]: > 100 µM
TGI [29]: > 100 µM
TGI [30]: > 100 µM
TGI [31]: > 100 µM
TGI [32]: 79.8 µM
TGI [33]: > 100 µM
TGI [36]: > 100 µM
TGI [37]: 75.4 µM
TGI [38]: > 100 µM
TGI [69]: > 100 µM
TGI [39]: > 100 µM
TGI [40]: > 100 µM
TGI [41]: > 100 µM
TGI [42]: > 100 µM
TGI [44]: > 100 µM
TGI [45]: > 100 µM
TGI [48]: > 100 µM
TGI [49]: > 100 µM
TGI [51]: > 100 µM
TGI [52]: > 100 µM
TGI [53]: > 100 µM
TGI [54]: > 100 µM
TGI [55]: 79.9 µM
TGI [56]: > 100 µM
TGI [57]: > 100 µM
TGI [60]: > 100 µM
TGI [61]: > 100 µM
TGI [62]: > 100 µM
TGI [63]: 54 µM
TGI [66]: > 100 µM
